Laboratory results: patent US20240058337A1, “Managing Side Effects in T Cell Therapy” (Innovative Cellular Therapeutics Holdings, Ltd., priority 2022, published 2024)

Columns and labels:
Assay type in all cases: in vivo, human
[1] = test system: colorectal cancer (CRC) patients; experiment: Clinical trial: response and disease control to CAR T therapy with or without dasatinib; details: patients who got dasatinib
Experimental: (§1) This system was implemented in a clinical trial involving 35 colorectal cancer (CRC) patients, which were treated with mixed population of cells including GCC CAR T cells. Diarrhea, a common side effect, typically presented as early as day 7 (median=9, range 7-15) at a grade two severity or higher. The primary treatment for this was immediate administration of infliximab and, in some cases, dasatinib.
(§2) For the 1×10^6 CAR T/kg of body weight dose, half of the patients managed their diarrhea through supportive care and antidiarrheal medication. Around 85% experienced grade 2 or higher diarrhea, 67% of whom responded well to a single dose of infliximab. At a higher dose of 2×10^6 CAR T/kg bodyweight, only 13% of patients could control diarrhea with supportive care or antidiarrheal drugs, and all patients experienced a grade 2 or higher diarrhea, but only 43% responded to a single infliximab dose. […] In such cases, dasatinib was administered at 100 mg/day for over ten consecutive days until the patient's side effects reduced to grade 1 or less, and the patient was ready for discharge.

[2] = test system: Cytokine Release Syndrome (CRS); experiment: Cytokine Release Syndrome (CRS) management after CAR T therapy; details: grade 2 fever not resolved within 6 hours with conventional antipyretic methods
Experimental: This fever typically occurs earliest on day 3 (median is day 5, range is day 3-12). Tocilizumab administration results in remission in 90% of cases. However, if 24 hours after administering tocilizumab, the patient still presents with a grade 2 or higher fever or a refractory fever, treatment with corticosteroids should be initiated following ASCO guidelines. The remaining 10% of patients typically responds well to corticosteroids. If there is no improvement within 24 hours after this step, the administration of dasatinib at 100 mg once daily for 2-3 days can be administered.

[3] = test system: colorectal cancer (CRC) patients; experiment: Clinical trial of mixed population of cells including GCC CAR T cells: diarrhea side effect and its management
Experimental: as §1, §2

For `Cc1nc(Nc2ncc(C(=O)Nc3c(C)cccc3Cl)s2)cc(N2CCN(CCO)CC2)n1` [dasatinib], the “Disease Control Rate” value ([1]; 1 million cells/kg) was 33.3%, the “Response Rate to CAR T Therapy” value ([1]; 1 million cells/kg) was 0% and the “Disease Control Rate” value ([1]; 2 million+ cells/kg) was 75%. The “Response Rate to CAR T Therapy” value ([1]; 2 million+ cells/kg) was 50%.
Tocilizumab was tested, and the “remission of grade 2 fever (CRS) after tocilizumab administration, cases” value [2] was 90%.
infliximab was tested, and the “patients with grade 2 or higher diarrhea who responded well to a single dose of infliximab” value ([3]; 1×10^6 CAR T/kg of body weight) was 67%, the “patients with grade 2 or higher diarrhea who responded to a single infliximab dose” value ([3]; 2×10^6 CAR T/kg bodyweight) was 43% and the “patients who benefitted from a single dose of infliximab” value ([3]; 3×10^6 CAR T/kg body weight) was “fewer patients benefitted”.
